Measurements: the supplement of paper PMC10307832

Legend:
Assay in all cases: relative viability (nuclei count vs DMSO), 5 days (fraction); higher = more cells survive
Avagacestat + AZD7762 = compound: NC(=O)[C@@H](CCC(F)(F)F)N(Cc1ccc(-c2ncon2)cc1F)S(=O)(=O)c1ccc(Cl)cc1 [Avagacestat] + NC(=O)Nc1cc(-c2cccc(F)c2)sc1C(=O)N[C@H]1CCCNC1 [AZD7762] (partner 0.2 µM)
Outline: (§1)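 Relative viability divides the nuclei count in treated wells by that in vehicle wells. Lung cancer cell lines were seeded in 1536-well plates, dosed by pin tool the next day, and fixed and stained after 5 days in one step with final 0.05% Triton X-100, 1% formaldehyde and 1 ug/ml Hoechst. Dosing was a single drug or a fixed anchor-drug dose plus five library-drug doses (not always all listed) in √10 steps, and values are medians of duplicate plates imaged at 4×.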

Avagacestat + Pictilisib = compound: NC(=O)[C@@H](CCC(F)(F)F)N(Cc1ccc(-c2ncon2)cc1F)S(=O)(=O)c1ccc(Cl)cc1 [Avagacestat] + CS(=O)(=O)N1CCN(Cc2cc3nc(-c4cccc5[nH]ncc45)nc(N4CCOCC4)c3s2)CC1 [Pictilisib] (partner 1 µM)
Outline: as §1

Avagacestat + Phenformin = compound: NC(=O)[C@@H](CCC(F)(F)F)N(Cc1ccc(-c2ncon2)cc1F)S(=O)(=O)c1ccc(Cl)cc1 [Avagacestat] + N=C(N)NC(=N)NCCc1ccccc1 [Phenformin] (partner 250 µM)
Outline: as §1

Avagacestat + Alpelisib = compound: NC(=O)[C@@H](CCC(F)(F)F)N(Cc1ccc(-c2ncon2)cc1F)S(=O)(=O)c1ccc(Cl)cc1 [Avagacestat] + Cc1nc(NC(=O)N2CCC[C@H]2C(N)=O)sc1-c1ccnc(C(C)(C)C(F)(F)F)c1 [Alpelisib] (partner 2 µM)
Outline: as §1

Cell Line	relative viability (Avagacestat + AZD7762; first compound 0.08 µM)	relative viability (Avagacestat + AZD7762; first compound 0.253 µM)	relative viability (Avagacestat + AZD7762; first compound 0.8 µM)	relative viability (Avagacestat + AZD7762; first compound 2.53 µM)	relative viability (Avagacestat + AZD7762; first compound 8 µM)	relative viability (Avagacestat + Pictilisib; first compound 0.08 µM)	relative viability (Avagacestat + Pictilisib; first compound 0.253 µM)	relative viability (Avagacestat + Pictilisib; first compound 0.8 µM)	relative viability (Avagacestat + Pictilisib; first compound 2.53 µM)	relative viability (Avagacestat + Pictilisib; first compound 8 µM)	relative viability (Avagacestat + Phenformin; first compound 0.08 µM)	relative viability (Avagacestat + Phenformin; first compound 0.253 µM)	relative viability (Avagacestat + Phenformin; first compound 0.8 µM)	relative viability (Avagacestat + Phenformin; first compound 2.53 µM)	relative viability (Avagacestat + Phenformin; first compound 8 µM)	relative viability (Avagacestat + Alpelisib; first compound 0.08 µM)	relative viability (Avagacestat + Alpelisib; first compound 0.253 µM)	relative viability (Avagacestat + Alpelisib; first compound 0.8 µM)	relative viability (Avagacestat + Alpelisib; first compound 2.53 µM)	relative viability (Avagacestat + Alpelisib; first compound 8 µM)
201T	0.65	0.712	0.607	0.56	0.587	0.737	0.7	0.664	0.691	0.661	0.55	0.514	0.471	0.424	0.424	1.04	1.02	1.04	0.892	0.887
A-427	0.752	0.753	0.703	0.619	0.68	0.72	0.832	0.745	0.763	0.817	0.312	0.27	0.312	0.268	0.296	1.14	1.2	1.1	1.07	1.14
ABC-1	0.864	1.02	0.895	0.94	0.664	1	0.753	0.861	0.679	0.711	0.232	0.228	0.221	0.25	0.263	1.11	1.02	1.26	1.11	1.29
BEN	0.706	0.676	0.744	0.79	0.644	0.679	0.621	0.58	0.529	0.534	0.262	0.274	0.271	0.25	0.26	1.13	1.01	0.944	0.774	1.07
CAL-12T	0.703	0.703	0.782	0.61	0.569	0.734	0.47	0.719	0.624	0.48	0.721	0.578	0.662	0.614	0.403	1.39	1.74	1.27	1.17	1.24
COR-L23						1.07	0.878	0.774	0.653	0.397	0.463	0.444	0.423	0.435	0.359	0.982	1.01	0.788	0.743	0.568
COR-L 105						0.38	0.447	0.326	0.319	0.419	0.534	0.407	0.448	0.397	0.429	1.14	0.917	0.976	0.679	0.612
Calu-6						1.3	1.03	1.18	0.913	1.02						1.18	1.16	1.12	1.12	0.993
ChaGo-K-1	0.896	0.855	0.818	0.794	0.733	0.701	0.675	0.924	1.09	0.801	0.599	0.53	0.511	0.49	0.514					
EBC-1						0.429	0.331	0.413	0.362	0.327						0.691	0.78	0.743	0.738	0.555
EKVX	0.699	0.779	0.818	0.633	0.624	0.443	0.528	0.523	0.393	0.435	0.234	0.259	0.278	0.256	0.229	0.974	0.971	0.878	0.832	0.811
EMC-BAC-2	1.23	1.33	1.28	0.976	1.21	0.567	0.554	0.564	0.489	0.517	0.518	0.607	0.574	0.522	0.489	0.897	0.81	0.748	0.653	0.717
EPLC-272H	0.268	0.233	0.244	0.169	0.156	0.325	0.273	0.346	0.371	0.241	0.309	0.321	0.321	0.306	0.328	1.05	1	1.02	1.09	0.865
H3255	1.02	0.988	1.22	0.928	0.775	0.488	0.544	0.494	0.481	0.474	0.357	0.352	0.326	0.353	0.431	0.759	0.736	0.836	0.678	0.741
HARA	0.303	0.276	0.332	0.24	0.184	0.368	0.517	0.417	0.342	0.373	0.486	0.516	0.42	0.486	0.42	0.914	0.783	0.929	0.782	0.567
HCC-15	1.21	1.22	1.3	1.16	1.38	0.837	0.801	0.802	0.808	0.611	0.617	0.592	0.512	0.491	0.378	1.01	1.05	0.93	0.861	0.802
HCC-44	0.923	1.04	1.03	1.01	1.18	0.548	0.782	0.588	0.484	0.569	0.167	0.171	0.198	0.21	0.195	0.939	0.746	0.8	0.667	0.645

Cell Line	relative viability (Avagacestat + AZD7762; first compound 0.08 µM)	relative viability (Avagacestat + AZD7762; first compound 0.253 µM)	relative viability (Avagacestat + AZD7762; first compound 0.8 µM)	relative viability (Avagacestat + AZD7762; first compound 2.53 µM)	relative viability (Avagacestat + AZD7762; first compound 8 µM)	relative viability (Avagacestat + Pictilisib; first compound 0.08 µM)	relative viability (Avagacestat + Pictilisib; first compound 0.253 µM)	relative viability (Avagacestat + Pictilisib; first compound 0.8 µM)	relative viability (Avagacestat + Pictilisib; first compound 2.53 µM)	relative viability (Avagacestat + Pictilisib; first compound 8 µM)	relative viability (Avagacestat + Phenformin; first compound 0.08 µM)	relative viability (Avagacestat + Phenformin; first compound 0.253 µM)	relative viability (Avagacestat + Phenformin; first compound 0.8 µM)	relative viability (Avagacestat + Phenformin; first compound 2.53 µM)	relative viability (Avagacestat + Phenformin; first compound 8 µM)	relative viability (Avagacestat + Alpelisib; first compound 0.08 µM)	relative viability (Avagacestat + Alpelisib; first compound 0.253 µM)	relative viability (Avagacestat + Alpelisib; first compound 0.8 µM)	relative viability (Avagacestat + Alpelisib; first compound 2.53 µM)	relative viability (Avagacestat + Alpelisib; first compound 8 µM)
HCC-78	0.61	0.615	0.665	0.461	0.529	0.179	0.222	0.244	0.192	0.235	0.71	0.763	0.811	0.66	0.724	0.299	0.358	0.347	0.269	0.321
NCI-H520						0.302	0.291	0.274	0.229	0.205	0.648	0.612	0.494	0.436	0.529	1.16	0.868	0.74	0.7	0.715
NCI-H661						0.435	0.38	0.487		0.471	0.301	0.293	0.298	0.296	0.3	0.803	0.664	1.08		0.589
NCI-H1299						0.806	1.19	0.81	0.736	0.578						1.1	1.18	1.08	1.02	0.886
NCI-H1563						0.708	0.629	0.621	0.664	0.634	0.665	0.669	0.746	0.646	0.658	0.925	0.989	0.937	0.934	0.8
NCI-H1648	0.603	0.564	0.548	0.46	0.48															
NCI-H1650						0.693	0.577	0.552	0.542	0.476	0.446	0.416	0.484	0.455	0.412					
NCI-H1703	0.123	0.143	0.115	0.112	0.124	0.305	0.242	0.226	0.217	0.225						0.444	0.387	0.405	0.378	0.385
NCI-H2009						0.986	0.946	0.983	0.808	0.778	0.562	0.595	0.514	0.491	0.455	1.28	1.29	1.16	1.18	1.08
NCI-H2023						0.249	0.225	0.255	0.184	0.185	0.474	0.476	0.453	0.35	0.368	0.659	0.781	0.536	0.562	0.536
NCI-H2228						0.431	0.498	0.556	0.346	0.349	0.417	0.263	0.271	0.296	0.243	0.842	0.619	0.773	0.567	0.698
NCI-H2342	0.479	0.536	0.589	0.499	0.438						0.634	0.53	0.629	0.59	0.588					
SK-LU-1						0.628	0.526	0.586		0.354	0.539	0.499	0.523	0.353	0.474	1.02	0.633	0.937	0.773	0.807
SK-MES-1						0.377	0.387	0.306	0.294	0.288	0.739	0.827	0.721	0.635	0.606	0.992	0.948	0.741	0.892	0.457
SW 1573						0.771	0.625	0.524	0.492	0.444	0.498	0.431	0.366	0.369	0.341	0.858	0.855	0.688	0.753	0.494
UMC-11						0.966	0.747	0.964	0.844	0.867	0.36	0.352	0.364	0.341	0.321	1.22	1.19	1.21	0.885	0.933
